Broadly, the IC50 is the midpoint of a concentration-inhibition curve.

Data on 34 molecules can be found in patent publication US20240034736A1, “HSD17B13 INHIBITORS AND USES THEREOF” (FL2022-001, Inc., priority 2020, published 2024).

Sequence of Recombinant human HSD17B13 enzyme (Q7Z5P4 20-300): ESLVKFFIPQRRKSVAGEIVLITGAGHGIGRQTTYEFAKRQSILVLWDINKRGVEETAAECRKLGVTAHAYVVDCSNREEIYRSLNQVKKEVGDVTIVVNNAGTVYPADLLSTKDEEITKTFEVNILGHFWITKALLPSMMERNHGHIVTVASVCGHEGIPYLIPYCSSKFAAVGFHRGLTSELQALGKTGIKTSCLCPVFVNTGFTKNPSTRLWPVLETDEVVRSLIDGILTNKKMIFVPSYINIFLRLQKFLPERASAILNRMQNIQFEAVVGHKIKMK

The experiment has as its target Recombinant human HSD17B13 enzyme (Homo sapiens (Human), UniProt Q7Z5P4). The experiment is described as follows: HSD17b13 NAD(P)H-Glo Biochemical Assay. The settings on record: 50 uM estradiol, 1 mM NAD+; read-out: HSD17β13 IC50. As for the experimental part: Recombinant human HSD17B13 enzyme. Substrate: estradiol (Sigma β-Estradiol E8875), 100 mM in DMSO. […] Assay buffer final concentration: 20 mM Tris pH7.4 with 0.002% Tween-20 and 0.02% BSA. […] Enzymatic activity detected by NAD(P)H-Glo™ Detection System (Promega G9062).
Inhibitor compounds were serially diluted in DMSO and then further diluted in assay buffer to a 10× concentration consisting of 1% DMSO.
HSD17b13 enzyme was diluted in 1× assay buffer to the desired enzyme concentration based on the specific activity of the enzyme lot. 20 uL of diluted enzyme was added to each well along with 2.5 uL of 10× inhibitor solution. Assay plate was incubated at RT for 20 minutes, and then 2.5 uL of a 10× substrate/cofactor mix was added to each well for a final concentration of 50 uM estradiol and 1 mMNAD+. Assay plate was incubated at 37° C. for 3 hours. NAD(P)H-Glo™ Detection System reagents were prepared according to manufacturer's specifications, and 25 uL was added to each well. After incubating for 1 hour at RT, luminescence was measured.
Turning to `CS(=O)(=O)Nc1ccc(-c2ccc3c(cnn3-c3ccc(F)c(O)c3)c2)cn1` [Compound 11.02, N-(5-(1-(4-Fluoro-3-hydroxyphenyl)-1H-indazol-5-yl)pyridine-2-yl)methanesulfonamide], the IC50 lay within 1000 to 30000 nM.
Consider `O=C(O)c1ccc(-c2ccc3c(cnn3-c3ccc(F)c(O)c3)c2)c(Cl)c1` [Compound 12, 3-Chloro-4-(1-(4-Fluoro-3-hydroxyphenyl)-1H-indazol-5-yl)benzoic acid], for which the IC50 fell in the range of 1000 to 30000 nM.
Consider `NC(=O)c1ccc(-c2ccc3c(cnn3-c3ccc(F)c(O)c3)c2)c(Cl)c1` [Compound 13, 3-Chloro-4-(1-(4-fluoro-3-hydroxyphenyl)-1H-indazol-5-yl)benzamide], for which the IC50 was in the range of 100 to 1000 nM.
For `CN(C)C(=O)c1nn(-c2ccc(F)c(O)c2)c2ccc(-c3ccc(O)c(Cl)c3)cc12` [Compound 14, 5-(3-Chloro-4-hydroxyphenyl)-1-(4-fluoro-3-hydroxyphenyl)-N,N-dimethyl-1H-indazole-3-carboxamide], the concentration for half-maximal inhibition (IC50) fell in the range of 100 to 1000 nM.
`O=C(O)CCOc1ccc(-c2ccc3c(cnn3-c3ccc(F)c(O)c3)c2)cc1` [Compound 15, 3-(4-(1-(4-Fluoro-3-hydroxyphenyl)-1H-indazol-5-yl)phenoxy)propanoic acid]: the half-maximal inhibitory concentration (IC50) was 1000 to 30000 nM.
On to `Oc1ccc(-c2ccc3c(cnn3-c3cc(O)c(F)c(F)c3)c2)nc1` [Compound 16, 6-(1-(3,4-Difluoro-5-hydroxyphenyl)-1H-indazol-5-yl)pyridine-3-ol], for which the IC50 is 1000 to 30000 nM.
In the case of `Oc1cnc(-c2ccc3c(cnn3-c3cc(O)c(F)c(F)c3)c2)c(Cl)c1` [Compound 16.01, 5-Chloro-6-(1-(3,4-difluoro-5-hydroxyphenyl)-1H-indazol-5-yl)pyridine-3-ol], the IC50 is 100 to 1000 nM.
Consider `Oc1cnc(-c2ccc3c(cnn3-c3cc(O)c(F)c(F)c3)c2)nc1` [Compound 16.02, 2-(1-(3,4-Difluoro-5-hydroxyphenyl)-1H-indazol-5-yl)pyrimidin-5-ol], for which the 50% inhibitory concentration (IC50) lay in the range of 1000 to 30000 nM.
In the case of `Oc1ccc(-c2ccc3c(cnn3-c3cc(O)c(F)c(F)c3)c2)cn1` [Compound 16.03, 5-(1-(3,4-Difluoro-5-hydroxyphenyl)-1H-indazol-5-yl)pyridine-2-ol], the IC50 is 100 to 1000 nM.
Under `Oc1cncc(-n2ncc3cc(-c4ccc(O)c(Cl)c4)ccc32)c1` [Compound 17, 5-(5-(3-Chloro-4-hydroxyphenyl)-1H-indazol-1-yl)pyridin-3-ol] stands 100 to 1000 nM; under `CC1(C)CC=C(c2cc3cnn(-c4cc(O)c(F)c(C(F)(F)F)c4)c3cc2F)CC1` [Compound 18, 5-(5-(4,4-Dimethylcyclohex-1-en-1-yl)-6-fluoro-1H-indazol-1-yl)-2-fluoro-3-(trifluoromethyl)phenol], 100 to 1000 nM; under `CC1(C)CC=C(c2ccc3c(cnn3-c3cc(O)c(F)c(C(F)(F)F)c3)c2)CC1` [Compound 18.01, 5-(5-(4,4-Dimethylcyclohex-1-en-1-yl)-1H-indazol-1-yl)-2-fluoro-3-(trifluoromethyl)phenol], 100 to 1000 nM.
Consider `CC1(C)CC=C(c2ccc3nn(-c4cc(O)c(F)c(C(F)(F)F)c4)cc3c2)CC1` [Compound 18.02, 5-(5-(4,4-Dimethylcyclohex-1-en-1-yl)-2H-indazol-2-yl)-2-fluoro-3-(trifluoromethyl)phenol], for which the IC50 fell in the range of 100 to 1000 nM.
Under `CS(=O)(=O)N1CCN(c2cc3cnn(-c4cc(O)c(F)c(C(F)(F)F)c4)c3cc2Cl)CC1` [Compound 19, 5-(6-Chloro-5-(4-(methylsulfonyl)piperazin-1-yl)-1H-indazol-1-yl)-2-fluoro-3-(trifluoromethyl)phenol] stands less than 100 nM; under `CS(=O)(=O)N1CCN(c2cc3cnn(-c4cc(O)c(F)c(C(F)(F)F)c4)c3cc2F)CC1` [Compound 19.01, 2-Fluoro-5-(6-fluoro-5-(4-(methylsulfonyl)piperazin-1-yl)-1H-indazol-1-yl)-3-(trifluoromethyl)phenol], 100 to 1000 nM.
Consider `CS(=O)(=O)N1CCN(c2cc3cnn(-c4cc(O)c(F)c(Cl)c4)c3cc2F)CC1` [Compound 19.02, 3-Chloro-2-fluoro-5-(6-fluoro-5-(4-(methylsulfonyl)piperazin-1-yl)-1H-indazol-1-yl)phenol], for which the half-maximal inhibitory concentration (IC50) is 100 to 1000 nM.
Regarding `CS(=O)(=O)N1CCN(c2cc3cnn(-c4ccc(Cl)c(O)c4F)c3cc2F)CC1` [Compound 19.03, 6-Chloro-2-fluoro-3-(6-fluoro-5-(4-(methylsulfonyl)piperazin-1-yl)-1H-indazol-1-yl)phenol], the IC50 is 100 to 1000 nM.
Take `CC1(C)CN(S(C)(=O)=O)CCN1c1cc2cnn(-c3cc(O)c(F)c(C(F)(F)F)c3)c2cn1` [Compound 19.04, 5-(5-(2,2-Dimethyl-4-(methylsulfonyl)piperazin-1-yl)-1H-pyrazolo[3,4-c]pyridine-1-yl)-2-fluoro-3-(trifluoromethyl)phenol]: the half-inhibitory concentration (IC50) lay within 100 to 1000 nM.
On to `CC1(C)CN(S(C)(=O)=O)CCN1c1cc2cn(-c3cc(O)c(F)c(C(F)(F)F)c3)nc2cn1` [Compound 19.05, 5-(5-(2,2-Dimethyl-4-(methylsulfonyl)piperazin-1-yl)-2H-pyrazolo[3,4-c]pyridine-2-yl)-2-fluoro-3-(trifluoromethyl)phenol], for which the IC50 fell in the range of 100 to 1000 nM.
With `CS(=O)(=O)N1CCN(c2cc3cnn(-c4cc(C(F)(F)F)cc(O)c4F)c3cn2)CC1` [Compound 19.06, 2-Fluoro-3-(5-(4-(methylsulfonyl)piperazin-1-yl)-1H-pyrazolo[3,4-c]pyridine-1-yl)-5-(trifluoromethyl)phenol], the 50% inhibitory concentration (IC50) was 100 to 1000 nM.
As for `CS(=O)(=O)N1CCN(c2cc3cnn(-c4ccc(F)c(O)c4F)c3cn2)CC1` [Compound 19.07, 2,6-Difluoro-3-(5-(4-(methylsulfonyl)piperazin-1-yl)-1H-pyrazolo[3,4-c]pyridine-1-yl)phenol], the IC50 lay within 100 to 1000 nM.
With `CS(=O)(=O)N1CCN(c2cc3cn(-c4ccc(F)c(O)c4F)nc3cn2)CC1` [Compound 19.08, 2,6-Difluoro-3-(5-(4-(methylsulfonyl)piperazin-1-yl)-2H-pyrazolo[3,4-c]pyridine-2-yl)phenol], the IC50 was 1000 to 30000 nM.
With `CS(=O)(=O)N1CCN(c2cc3cnn(-c4ccc(F)c(O)c4)c3cn2)CC1` [Compound 19.09, 2-Fluoro-5-(5-(4-(methylsulfonyl)piperazin-1-yl)-1H-pyrazolo[3,4-c]pyridine-1-yl)phenol], the IC50 was in the range of 1000 to 30000 nM.
As to `CS(=O)(=O)N1CCN(c2cc3cn(-c4ccc(F)c(O)c4)nc3cn2)CC1` [Compound 19.10, 2-Fluoro-5-(5-(4-(methylsulfonyl)piperazin-1-yl)-2H-pyrazolo[3,4-c]pyridine-2-yl)phenol], the concentration for half-maximal inhibition (IC50) lay within 1000 to 30000 nM.
Under `CS(=O)(=O)N1CCN(c2cc3cnn(-c4cccc(O)c4F)c3cn2)CC1` [Compound 19.11, 2-Fluoro-3-(5-(4-(methylsulfonyl)piperazin-1-yl)-1H-pyrazolo[3,4-c]pyridine-1-yl)phenol] stands 1000 to 30000 nM; under `CS(=O)(=O)N1CCN(c2cc3cnn(-c4cc(O)cc(OC(F)(F)F)c4)c3cn2)CC1` [Compound 19.12, 3-(5-(4-(Methylsulfonyl)piperazin-1-yl)-1H-pyrazolo[3,4-c]pyridine-1-yl)-5-(trifluoromethoxy)phenol], 1000 to 30000 nM; under `CS(=O)(=O)N1CCN(c2cc3cn(-c4cc(O)cc(OC(F)(F)F)c4)nc3cn2)CC1` [Compound 19.13, 3-(5-(4-(Methylsulfonyl)piperazin-1-yl)-2H-pyrazolo[3,4-c]pyridin-2-yl)-5-(trifluoromethoxy)phenol], 1000 to 30000 nM.
Take `CS(=O)(=O)N1CCN(c2cc3cnn(-c4ccc(Cl)c(O)c4)c3cn2)CC1` [Compound 19.14, 2-Chloro-5-(5-(4-(methylsulfonyl)piperazin-1-yl)-1H-pyrazolo[3,4-c]pyridine-1-yl)phenol]: the IC50 fell in the range of 1000 to 30000 nM.
With `CS(=O)(=O)N1CCN(c2cc3cn(-c4ccc(Cl)c(O)c4)nc3cn2)CC1` [Compound 19.15, 2-Chloro-5-(5-(4-(methylsulfonyl)piperazin-1-yl)-2H-pyrazolo[3,4-c]pyridine-2-yl)phenol] the figure was 1000 to 30000 nM; with `CS(=O)(=O)N1CCN(c2cc3cnn(-c4cc(O)cc(C(F)(F)F)c4)c3cn2)CC1` [Compound 19.16, 3-(5-(4-(Methylsulfonyl)piperazin-1-yl)-1H-pyrazolo[3,4-c]pyridine-1-yl)-5-(trifluoromethyl)phenol], 1000 to 30000 nM; with `CS(=O)(=O)N1CCN(c2cc3cnn(-c4cc(O)c(Cl)c(F)c4)c3cn2)CC1` [Compound 19.17, 2-Chloro-3-fluoro-5-(5-(4-(methylsulfonyl)piperazin-1-yl)-1H-pyrazolo[3,4-c]pyridine-1-yl)phenol], 1000 to 30000 nM.
As for `CS(=O)(=O)N1CCN(c2cc3cn(-c4cc(O)c(Cl)c(F)c4)nc3cn2)CC1` [Compound 19.18, 2-Chloro-3-fluoro-5-(5-(4-(methylsulfonyl)piperazin-1-yl)-2H-pyrazolo[3,4-c]pyridine-2-yl)phenol], the IC50 was 100 to 1000 nM.
With `CS(=O)(=O)N1CCN(c2cc3cnn(-c4cc(O)c(F)cn4)c3cn2)CC1` [Compound 19.19, 5-Fluoro-2-(5-(4-(methylsulfonyl)piperazin-1-yl)-1H-pyrazolo[3,4-c]pyridine-1-yl)pyridine-4-ol] the figure was 1000 to 30000 nM; with `CS(=O)(=O)N1CCN(c2cc3cn(-c4cc(O)c(F)cn4)nc3cn2)CC1` [Compound 19.20, 5-Fluoro-2-(5-(4-(methylsulfonyl)piperazin-1-yl)-2H-pyrazolo[3,4-c]pyridine-2-yl)pyridine-4-ol], 1000 to 30000 nM.
